Data: patent publication US10662183B2, “Inhibitors of myocardin-related transcription factor and serum response factor (MRTF/SRF)-mediated gene transcription and methods for use of the same” (THE REGENTS OF THE UNIVERSITY OF MICHIGAN, priority 2014, dated 2020)
pIC50: −log10 of the molar value.

What follows are compounds tested on SRE.L-firefly luciferase reporter (Rho/MKL1 pathway) in PC-3 prostate cancer cells (assay: SRE.L-luciferase reporter assay). Details: 19 h, PC-3 cells transfected with Gα12Q231L, SRE.L and pRL-TK reporters; compound 19 hrs.
Format: cell-based
Protocol: Seed PC-3 prostate cancer cells (40,000 cells/well) were grown in 96-well plates in 10% FBS containing DMEM medium. Cells were transiently transfected with the Ga12QL activator of the Rho/MKL1 pathway, along with the SRE.L-firefly luciferase reporter construct for 6 hours. Additionally, cells were co-transfected with the TK-Renilla luciferase reporter as an indicator of non-specific compound effects. Various concentrations of the compounds disclosed herein were added to the 96-well plates. Plates were incubated for 19 hours at 37° C. and 5% C02 in 0.5% FBS containing DMEM medium. Cells were lysed with IX Passive Lysis Buffer (Promega). Plates were incubated for 30 minutes at room temperature. Luminescence counts were read with a Victor2 (Perkin-Elmer) plate reader.
One hour prior to cell lysis for the dual luciferase assay, 10 μl: per well of WST1 reagent (Roche) was added to the 96-well plates. Plates were incubated for 1 hour at 37° C. and 5% CO2. Cell viability was measured by WST1 absorbance at 450 nm with a Victor2 (Perkin-Elmer) plate reader.
Biological activity of the compounds disclosed herein were assessed in the SRE.L luciferase reporter assay. PC-3 prostate cancer cells were co-transfected with 2 ng of the Gα12Q231L expression plasmid along with 50 ng of the SRE.L and 7 ng of the pRL-TK luciferase reporter plasmids, as described in the Materials and Methods section. Cells were treated with 0 (vehicle, DMSO alone), 1, 3, 10, 30, and 100 μM of a compound disclosed herein for 19 hrs after transfection before lysis. Luminescence was determined as described in the Materials and Methods section. Just before cell lysis, the viability of the cells was measured using the WST-1 cell proliferation reagent as described in the Materials and Methods section. Data are expressed as percentage of inhibition (DMSO alone=0%). The experiments were performed three separate times to achieve n=3 in triplicate.

pIC50	Structure (SMILES)
5.64	O=C(c1cccc(-c2ccco2)c1)N1CCCC(COc2ccc(Cl)cc2)C1 (stereo not drawn) [Example E-066, (3-((4-chlorophenoxy)methyl)piperidin-1-yl)(3-(furan-2-yl)phenyl)methanone]
5.15	O=C(Nc1ccc(Cl)cc1)C1CN(C(=O)c2cccc(-n3cccn3)c2)CC(F)(F)C1 (stereo not drawn) [Example E-067, 1-(3-(1H-pyrazol-1-yl)benzoyl)-N-(4-chlorophenyl)-5,5-difluoropiperidine-3-carboxamide]
6.11	O=C(Nc1ccc(Cl)cc1)C1CN(C(=O)c2cccc(-c3ccncc3)c2)CC(F)(F)C1 (stereo not drawn) [Example E-068, N-(4-chlorophenyl)-5,5-difluoro-1-(3-(pyridin-4-yl)benzoyl) piperidine-3-carboxamide]
5.74	Cc1oc(-c2ccccc2)nc1C(=O)N1CCCC(C(=O)Nc2ccc(Cl)cc2)C1 (stereo not drawn) [Example E-069, N-(4-chlorophenyl)-1-(5-methyl-2-phenyloxazole-4-carbonyl)piperidine-3-carboxamide]
5.04	O=C(Nc1ccc(Cl)cc1)C1CN(C(=O)Cc2nc3ccccc3[nH]2)CC(F)(F)C1 (stereo not drawn) [Example E-070, 1-(2-(1H-benzo[d]imidazol-2-yl)acetyl)-N-(4-chlorophenyl)-5,5-difluoropiperidine-3-carboxamide]
4.92	O=C(Nc1ccc(Cl)cc1)C1CCCN(C(=O)Cc2cc3ccccc3o2)C1 (stereo not drawn) [Example E-071, 1-(2-(benzofuran-2-yl)acetyl)-N-(4-chlorophenyl)piperidine-3-carboxamide]
7.08	Cc1nc(-c2ccccc2)sc1C(=O)N1CCCC(C(=O)Nc2ccc(Cl)cc2)C1 (stereo not drawn) [Example E-072, N-(4-chlorophenyl)-1-(4-methyl-2-phenylthiazole-5-carbonyl)piperidine-3-carboxamide]
6.35	O=C(Nc1ccc(Cl)cc1)C1CCCN(C(=O)c2csc(-c3ccccc3)n2)C1 (stereo not drawn) [Example E-073, N-(4-chlorophenyl)-1-(2-phenylthiazole-4-carbonyl)piperidine-3-carboxamide]
< 4.00	O=C(Nc1ccc(Cl)cc1)C1CCCN(C(=O)c2ccc3scnc3c2)C1 (stereo not drawn) [Example E-074, 1-(benzo[d]thiazole-5-carbonyl)-N-(4-chlorophenyl)piperidine-3-carboxamide]
6.17	O=C(Nc1ccc(Cl)cc1)C1CN(C(=O)c2nc3ccccc3[nH]2)CC(F)(F)C1 (stereo not drawn) [Example E-075, 1-(1H-benzo[d]imidazole-2-carbonyl)-N-(4-chlorophenyl)-5,5-difluoropiperidine-3-carboxamide]
5.80	O=C(Nc1ccc(Cl)cc1)C1CN(C(=O)c2ccc3cc[nH]c3c2)CC(F)(F)C1 (stereo not drawn) [Example E-076, N-(4-chlorophenyl)-5,5-difluoro-1-(1H-indole-6-carbonyl)piperidine-3-carboxamide]
6.09	CC(C)(C(=O)N1CCCC(C(=O)Nc2ccc(Cl)cc2)C1)c1csc(-c2ccc(F)cc2)n1 (stereo not drawn) [Example E-077, N-(4-chlorophenyl)-1-(2-(2-(4-fluorophenyl)thiazol-4-yl)-2-methylpropanoyl)piperidine-3-carboxamide]
6.00	O=C(Nc1ccc(Cl)cc1)C1CCCN(C(=O)Cc2csc(-c3ccc(F)cc3)n2)C1 (stereo not drawn) [Example E-078, N-(4-chlorophenyl)-1-(2-(2-(4-fluorophenyl)thiazol-4-yl)acetyl)piperidine-3-carboxamide]
6.04	O=C(Nc1ccc(Cl)cc1)C1CCCN(C(=O)c2cc3ccc(F)cc3[nH]2)C1 (stereo not drawn) [Example E-079, N-(4-chlorophenyl)-1-(6-fluoro-1H-indole-2-carbonyl)piperidine-3-carboxamide]
6.51	O=C(Nc1ccc(Cl)cc1)C1CCCN(C(=O)c2cc3ccccc3[nH]2)C1 (stereo not drawn) [Example E-080, N-(4-chlorophenyl)-1-(1H-indole-2-carbonyl)piperidine-3-carboxamide]
6.59	COc1ccc2[nH]c(C(=O)N3CCCC(C(=O)Nc4ccc(Cl)cc4)C3)cc2c1 (stereo not drawn) [Example E-081, N-(4-chlorophenyl)-1-(5-methoxy-1H-indole-2-carbonyl)piperidine-3-carboxamide]
6.43	O=C(Nc1ccc(Cl)cc1)C1CCCN(C(=O)c2ccc3[nH]ncc3c2)C1 (stereo not drawn) [Example E-082, N-(4-chlorophenyl)-1-(1H-indazole-5-carbonyl)piperidine-3-carboxamide]
6.17	O=C(Nc1ccc(Cl)cc1)C1CCCN(C(=O)CCc2c[nH]c3ccccc23)C1 (stereo not drawn) [Example E-083, 1-(3-(1H-indol-3-yl)propanoyl)-N-(4-chlorophenyl) piperidine-3-carboxamide]

pIC50	Structure (SMILES)
6.41	O=C(Nc1ccc(Cl)cc1)C1CCCN(C(=O)Cc2c[nH]c3ccccc23)C1 (stereo not drawn) [Example E-084, 1-(2-(1H-indol-3-yl)acetyl)-N-(4-chlorophenyl)piperidine-3-carboxamide]
6.51	O=C(Nc1ccc(Cl)cc1)C1CCCN(C(=O)c2cccc3[nH]ncc23)C1 (stereo not drawn) [Example E-085, N-(4-chlorophenyl)-1-(1H-indazole-4-carbonyl)piperidine-3-carboxamide]
7.01	O=C(Nc1ccc(Cl)cc1)C1CCCN(C(=O)c2ccc3cc[nH]c3c2)C1 (stereo not drawn) [Example E-086, N-(4-chlorophenyl)-1-(1H-indole-6-carbonyl)piperidine-3-carboxamide]
6.89	O=C(Nc1ccc(Cl)cc1)C1CCCN(C(=O)c2ccc3[nH]ccc3c2)C1 (stereo not drawn) [Example E-087, N-(4-chlorophenyl)-1-(1H-indole-5-carbonyl)piperidine-3-carboxamide]
5.82	O=C(Nc1ccc(Cl)cc1)C1CCCN(C(=O)c2n[nH]c3ccccc23)C1 (stereo not drawn) [Example E-088, N-(4-chlorophenyl)-1-(1H-indazole-3-carbonyl)piperidine-3-carboxamide]
6.92	O=C(Nc1ccc(Cl)cc1)C1CCCN(C(=O)c2nc3ccccc3[nH]2)C1 (stereo not drawn) [Example E-089, 1-(1H-benzo[d]imidazole-2-carbonyl)-N-(4-chlorophenyl)piperidine-3-carboxamide]
6.62	O=C(Nc1ccc(Cl)cc1)C1CCCN(C(=O)c2ccccc2-n2cccn2)C1 (stereo not drawn) [Example E-090, 1-(2-(1H-pyrazol-1-yl)benzoyl)-N-(4-chlorophenyl) piperidine-3-carboxamide]
5.39	O=C(Nc1ccc(Cl)cc1)C1CCCN(C(=O)c2ccccc2-n2ccnc2)C1 (stereo not drawn) [Example E-091, 1-(2-(1H-imidazol-1-yl)benzoyl)-N-(4-chlorophenyl) piperidine-3-carboxamide]
6.15	O=C(Nc1ccc(Cl)cc1)C1CCCN(C(=O)c2ccccc2-c2ccco2)C1 (stereo not drawn) [Example E-092, N-(4-chlorophenyl)-1-(2-(furan-2-yl)benzoyl)piperidine-3-carboxamide]
6.31	O=C(Nc1ccc(Cl)cc1)C1CCCN(C(=O)c2ccc3cn[nH]c3c2)C1 (stereo not drawn) [Example E-093, N-(4-chlorophenyl)-1-(1H-indazole-6-carbonyl)piperidine-3-carboxamide]
6.34	O=C(Nc1ccc(Cl)cc1)C1CCCN(C(=O)c2ccc3occc3c2)C1 (stereo not drawn) [Example E-094, 1-(benzofuran-5-carbonyl)-N-(4-chlorophenyl)piperidine-3-carboxamide]
5.26	CS(=O)(=O)c1ccc(NC(=O)C2CCCN(C(=O)c3cccc(-c4ccco4)c3)C2)cc1 (stereo not drawn) [Example E-095, 1-(3-(furan-2-yl)benzoyl)-N-(4-(methylsulfonyl)phenyl) piperidine-3-carboxamide]
5.96	O=C(Nc1ccc(Cl)cc1)C1CN(C(=O)c2cccc(-c3ccccn3)c2)CC(F)(F)C1 (stereo not drawn) [Example E-096, N-(4-chlorophenyl)-5,5-difluoro-1-(3-(pyridin-2-yl)benzoyl)piperidine-3-carboxamide]
4.49	O=C(Nc1c(F)cccc1F)C1CCCN(C(=O)c2cccc(-c3ccco3)c2)C1 (stereo not drawn) [Example E-097, N-(2,6-difluorophenyl)-1-(3-(furan-2-yl)benzoyl)piperidine-3-carboxamide]
5.00	O=C(Nc1ccc(Cl)cc1)C1CN(C(=O)c2cccc(-c3ncc[nH]3)c2)CC(F)(F)C1 (stereo not drawn) [Example E-098, 1-(3-(1H-imidazol-2-yl)benzoyl)-N-(4-chlorophenyl)-5,5-difluoropiperidine-3-carboxamide]
5.48	O=C(Nc1ccc(Cl)cc1)C1CN(C(=O)c2cccc(-c3cncnc3)c2)CC(F)(F)C1 (stereo not drawn) [Example E-099, N-(4-chlorophenyl)-5,5-difluoro-1-(3-(pyrimidin-5-yl)benzoyl)piperidine-3-carboxamide]
6.04	O=C(Nc1ccc(Cl)cc1)C1CN(C(=O)c2cccc(-c3cccnc3)c2)CC(F)(F)C1 (stereo not drawn) [Example E-100, N-(4-chlorophenyl)-5,5-difluoro-1-(3-(pyridin-3-yl)benzoyl)piperidine-3-carboxamide]
5.25	O=C(Nc1ccccc1Cl)C1CCCN(C(=O)c2cccc(-c3ccco3)c2)C1 (stereo not drawn) [Example E-101, N-(2-chlorophenyl)-1-(3-(furan-2-yl)benzoyl)piperidine-3-carboxamide]
